Experimental data published in patent US9877956B2, “Antiviral compounds and methods of use thereof” (Trana Discovery, Inc., priority 2014, dated 2018).
Where “and” joins values, the source holds several entries; their conditions need not be identical. Identical values can stand only once.

Legend:
Type in all cases: cell-based
[1] = tested on: HIV-1/Ba-L; assay: Inhibition of HIV-1 Ba-L replication in PBMC (RT values); conditions: for % VC: RT relative to virus control; for RT Values (cpm), SAMPLE: individual samples
Procedure: (§1) These compounds were further screened for activity in HIV-1-infected peripheral blood mononuclear cells (PBMC). The data (experiments were repeated, so duplicates are shown) is summarized in the tables below, and also in FIGS. 4A-B and 5A-B.
The HIV strain was HIV-1/Ba-L. The titer was 0.1 μL/well.

[2] = Toxicity in PBMC (Cell Titer 96); conditions: human, peripheral blood mononuclear cells (PBMC); PBMC, Cell Titer 96
Excerpt: as §1

[3] = tested on: PBMC; assay: Toxicity in PBMC (Cell Titer 96); conditions: for % CC: O.D. relative to cell control; for TOXICITY VALUES (Cell Titer 96 - O.D. @ 490/650 nm), SAMPLE: individual samples
Excerpt: as §1

[4] = Human immunodeficiency virus 1, BAL, PBMC, HIV-1 Ba-L in PBMC

## CC1(C)OC(=O)C(=Cc2ccc(I)o2)C(=O)O1 [HIT #156]
[1]; 0.01 μM
  % VC: 112.3% and 106.4%
  RT Values (cpm), SAMPLE: 10480 cpm and 8884 cpm and 11894 cpm and 25643 cpm and 28270 cpm and 33067 cpm
[1]; 0.03 μM
  % VC: 84.0% and 99.4%
  RT Values (cpm), SAMPLE: 6505 cpm and 8625 cpm and 8243 cpm and 25769 cpm and 26494 cpm and 29027 cpm
[1]; 0.10 μM
  % VC: 68.9% and 122.1%
  RT Values (cpm), SAMPLE: 8064 cpm and 6238 cpm and 4871 cpm and 38847 cpm and 24637 cpm and 36331 cpm
[1]; 0.32 μM
  % VC: 81.3% and 86.3%
  RT Values (cpm), SAMPLE: 8253 cpm and 7009 cpm and 7376 cpm and 18012 cpm and 26707 cpm and 25800 cpm
[1]; 1.00 μM
  % VC: 64.5% and 85.3%
  RT Values (cpm), SAMPLE: 9732 cpm and 5647 cpm and 2583 cpm and 21965 cpm and 22751 cpm and 25042 cpm
[1]; 3.16 μM
  % VC: 27.9% and 43.2%
  RT Values (cpm), SAMPLE: 6132 cpm and 1058 cpm and 586 cpm and 6829 cpm and 9899 cpm and 18609 cpm
[1]; 10.0 μM
  % VC: 6.4% and 12.6%
  RT Values (cpm), SAMPLE: 635 cpm and 579 cpm and 575 cpm and 9437 cpm and 247 cpm and 585 cpm
[1]; 31.6 μM
  % VC: 1.6% and 2.3%
  RT Values (cpm), SAMPLE: 54 cpm and 94 cpm and 290 cpm and 120 cpm and 1345 cpm and 378 cpm
[1]; 100 μM
  % VC: 0.1% and 0.0%
  RT Values (cpm), SAMPLE: 18 cpm and 2 cpm and 0 cpm
[1]; HIV-1 Ba-L in PBMC
  IC50: 2.63 µM
  IC90: 13.3 µM
  IC 95%: 14.0 µM and 23.3 µM
[1]; [4]
  IC50: 1.58 µM
  IC90: 8.26 µM
[1]; TC/IC at 50%
  ANTIVIRAL INDEX (AI) 50%: >63.3 and >38.1
[1]; TC/IC at 90%
  ANTIVIRAL INDEX (AI) 90%: >12.1 and >7.51
[1]; TC/IC at 95%
  ANTIVIRAL INDEX (AI) 95%: >7.14 and >4.30
[2]
  CC50: > 100 µM
[3]; 0.01 μM
  % CC: 110.7% and 108.3%
  TOXICITY VALUES (Cell Titer 96 - O.D. @ 490/650 nm), SAMPLE: 2.344 O.D. and 1.718 O.D. and 1.852 O.D. and 0.687 O.D. and 1.030 O.D. and 0.777 O.D.
[3]; 0.03 μM
  % CC: 111.8% and 118.7%
  TOXICITY VALUES (Cell Titer 96 - O.D. @ 490/650 nm), SAMPLE: 2.336 O.D. and 1.807 O.D. and 1.831 O.D. and 0.821 O.D. and 1.115 O.D. and 0.798 O.D.
[3]; 0.10 μM
  TOXICITY VALUES (Cell Titer 96 - O.D. @ 490/650 nm), MEAN: 1.952 O.D. and 0.991 O.D.
  % CC: 109.6% and 129.1%
  TOXICITY VALUES (Cell Titer 96 - O.D. @ 490/650 nm), SAMPLE: 2.142 O.D. and 1.855 O.D. and 1.858 O.D. and 1.098 O.D. and 1.053 O.D. and 0.822 O.D.
[3]; 0.32 μM
  TOXICITY VALUES (Cell Titer 96 - O.D. @ 490/650 nm), MEAN: 1.937 O.D. and 1.031 O.D.
  % CC: 108.8% and 134.3%
  TOXICITY VALUES (Cell Titer 96 - O.D. @ 490/650 nm), SAMPLE: 2.234 O.D. and 1.808 O.D. and 1.768 O.D. and 1.094 O.D. and 1.234 O.D. and 0.765 O.D.
[3]; 1.00 μM
  TOXICITY VALUES (Cell Titer 96 - O.D. @ 490/650 nm), MEAN: 1.882 O.D. and 1.010 O.D.
  % CC: 105.7% and 131.5%
  TOXICITY VALUES (Cell Titer 96 - O.D. @ 490/650 nm), SAMPLE: 2.065 O.D. and 1.819 O.D. and 1.762 O.D. and 1.173 O.D. and 1.067 O.D. and 0.789 O.D.
[3]; 3.16 μM
  TOXICITY VALUES (Cell Titer 96 - O.D. @ 490/650 nm), MEAN: 1.914 O.D. and 1.060 O.D.
  % CC: 107.5% and 138.1%
  TOXICITY VALUES (Cell Titer 96 - O.D. @ 490/650 nm), SAMPLE: 2.179 O.D. and 1.770 O.D. and 1.792 O.D. and 1.161 O.D. and 1.175 O.D. and 0.845 O.D.
[3]; 10.0 μM
  TOXICITY VALUES (Cell Titer 96 - O.D. @ 490/650 nm), MEAN: 1.924 O.D. and 0.976 O.D.
  % CC: 108.1% and 127.1%
  TOXICITY VALUES (Cell Titer 96 - O.D. @ 490/650 nm), SAMPLE: 2.172 O.D. and 1.791 O.D. and 1.810 O.D. and 1.001 O.D. and 0.993 O.D. and 0.934 O.D.
[3]; 31.6 μM
  TOXICITY VALUES (Cell Titer 96 - O.D. @ 490/650 nm), MEAN: 1.891 O.D. and 0.979 O.D.
  % CC: 106.2% and 127.5%
  TOXICITY VALUES (Cell Titer 96 - O.D. @ 490/650 nm), SAMPLE: 2.078 O.D. and 1.741 O.D. and 1.855 O.D. and 0.997 O.D. and 1.014 O.D. and 0.926 O.D.
